Results on 19 compounds are retold here after ChEMBL document CHEMBL3046714, “Synthesis and Precocious Metamorphosis-Inducing Activity of 3-(1-Alkenyl) pyridines” (J Pestic Sci, 2000).

Structures are written as SMILES. Some results are limits rather than exact numbers.

For data set [1], the system named is Bombyx mori. Nature of the data set: Precocious metamorphosis-inducing activity in Bombyx mori Shunrei x Shougetsu fourth-instar larvae assessed as change in body weight compound applied topically measured every 12 hr during fourth-instar period. The class given is functional.
Data set [2] concerns Bombyx mori. Nature of the data set: Precocious metamorphosis-inducing activity in Bombyx mori Shunrei x Shougetsu fourth-instar larvae assessed as change in body weight at >160 ug applied topically measured every 12 hr during fourth-instar period. The class given is functional.
The test system of data set [3] is Bombyx mori. The experiment in a line: Precocious metamorphosis-inducing activity in Bombyx mori Shunrei x Shougetsu fourth-instar larvae assessed as change in body weight at >80 ug applied topically measured every 12 hr during fourth-instar period. The class given is functional.
Data set [4] is described as follows: Toxicity in Bombyx mori Shunrei x Shougetsu fourth-instar larvae assessed as mortality at 160 ug applied topically. In kind it is organism-based. As to conditions: in vivo, topical or ocular.

By mortality is commonly meant the share of the test organisms that died.

`C(=C(c1ccccc1)c1cccnc1)c1ccccc1`: the ED50 in data set [1] was 144 µg.
For `CCCCC=C(c1ccccc1)c1cccnc1`, the ED50 in data set [1] was found to be 102 µg.
Same read-out and setting: next, `CCOC(=O)C=C(c1ccccc1)c1cccnc1`: 89 µg; `C=C(c1ccccc1)c1cccnc1`: 56 µg; `CC=C(c1ccccc1)c1cccnc1`: 26 µg.
For the compound `C(=C\c1cccnc1)/c1ccccc1`, in data set [1], the ED50 is greater than 160 µg. In data set [2], the Activity turned out to be 9%.
For `C(=C/c1cccnc1)/c1ccccc1`, the ED50 in data set [1] is greater than 80 µg. Moreover, the Activity in data set [3] stood at 7%. Moreover, the mortality in data set [4] is 100%.
In the case of `CC=C(C)c1cccnc1`, the ED50 in data set [1] was greater than 160 µg. For the same compound, the Activity in data set [2] turned out to be 20%.
The like results for `CCOC(=O)/C=C(/C)c1cccnc1` were, in that order, greater than 160 µg and 0%.
Take `CCOC(=O)/C=C/c1cccnc1`: in data set [1], the ED50 is greater than 160 µg. Moreover, in data set [2], the Activity amounted to 0%.
Turning to `CCCC=C(c1ccccc1)c1cccnc1`, the ED50 in data set [1] was found to be 50 µg.
For `CC(C)CC=C(c1ccccc1)c1cccnc1`, in data set [1], the ED50 is 34 µg.
For the compound `CCOC(=O)/C=C(\C)c1cccnc1`, the ED50 in data set [1] is greater than 160 µg. In addition, the Activity in data set [2] amounted to 5%.
`CCC=C(c1ccccc1)c1cccnc1`: the ED50 in data set [1] worked out at 29 µg.
Consider `CCC(c1ccccc1)c1cccnc1` (racemic), for which the ED50 in data set [1] came out at 42 µg.
As for `CC(C)C=C(c1ccccc1)c1cccnc1`, in data set [1], the ED50 came to 27 µg.
Turning to `CC(=Cc1ccccc1)c1cccnc1`, the ED50 in data set [1] came out at 42 µg.
On to `CC=Cc1cccnc1`, for which the ED50 in data set [1] was greater than 160 µg. The Activity in data set [2] is recorded as 0%.
For the compound `CCCCCC=C(c1ccccc1)c1cccnc1`, in data set [1], the ED50 is greater than 160 µg. The Activity in data set [2] is 35%.
